In this assay the test system is S-49 mouse lymphoma cells. In words: Blocking of isoproterenol-promoted cyclic AMP accumulation in S-49 mouse lymphoma cells. To be noted: blocking isoproterenol-promoted cyclic AMP release in S49 cells. It is filed as cell-based. The text has this: The β-adrenergic antagonist derivatives can be tested for biological and pharmacological activity by an in vitro technique. In this test a measurement is taken of the concentration of the derivative required to block a specified dose of isoproterenol (β-adrenergic agonist) in S-49 mouse lymphoma cells as measured by cyclic AMP accumulation therein. Details of the test utilizing S-49 mouse lymphoma cells is set forth in Coffino et al, In Vitro, 14, #1, 140 (1978). The activities of the β-adrenergic derivatives are expressed as the relative potencies of the unmodified drug, i.e., the β-adrenergic antagonist to that of the derivative drug.

For `Cc1ccc(NC(=O)CCC(C)NCC(O)COc2cccc3ccccc23)cc1` (stereo not shown) [Compound 7, 4-[3-(1-Naphthyloxy)-2-Hydroxypropylamino]-Pentanoic Acid p-Toluide], the “Rel. Potency (potency relative to the parent compound)” value (relative to propranolol) is reported as 6.8 × 10^-5.
The same measure, in the same setting: the figure for `Cc1ccc(NC(=O)CCCC(C)NCC(O)COc2cccc3ccccc23)cc1` (stereo not shown) [Compound 8, 5-[3-(1-Naphthyloxy)-2-Hydroxypropylamino]-Hexanoic Acid p-Toluide] is 6.8 × 10^-5; for `Cc1ccc(NC(=O)CCCCC(C)NCC(O)COc2cccc3ccccc23)cc1` (stereo not shown) [Compound 9, 6-[3-(1-Naphthyloxy)-2-Hydroxypropylamino]-Heptanoic Acid p-Toluide] it is 4.5 × 10^2; for `Cc1ccc(NC(=O)CCCCCC(C)NCC(O)COc2cccc3ccccc23)cc1` (stereo not shown) [Compound 10, 7-[3-(1-Naphthyloxy)-2-Hydroxypropylamino]-Octanoic Acid-p-Toluide] it is 3.7 × 10^-2.
The same measure, in the same setting: in the case of `CC(CCCCC(=O)Nc1ccc(C(F)(F)F)cc1)NCC(O)COc1cccc2ccccc12` (stereo not shown) [Compound 11, 6-[3-(1-Naphthyloxy)-2-Hydroxypropylamino]-Heptanoic Acid p-Trifluoromethylanilide] it was 8.75; in that of `CC(CCCCC(=O)Nc1ccc(CCC(=O)O)cc1)NCC(O)COc1cccc2ccccc12` (stereo not shown) [Compound 12, 3-{p-(6-[3-(1-Naphthyloxy)-2-Hydroxypropylamino]Heptanoylamino)-Phenyl}-Propionic Acid], 8.8 × 10^-1.
In the case of `CCCCNC(=O)CCc1ccc(NC(=O)CCCCC(C)NCC(O)COc2cccc3ccccc23)cc1` (stereo not shown) [Compound 13, 3-{p-(6-[3-(1-Naphthyloxy)-2-Hydroxypropylamino]Heptanoylamino)-Phenyl}-Propionic Acid n-Butylamide], for the setting “relative to propranolol”, the “Rel. Potency (potency relative to the parent compound)” value is given as 4.5 × 10^-2.
Consider `CCCCNC(=O)CCCCC(C)NCC(O)COc1cccc2ccccc12` (stereo not shown) [Compound 14, 6-[3-(1-Naphthyloxy)-2-Hydroxypropylamino]-Heptanoic Acid n-Butylamide], for which the “Rel. Potency (potency relative to the parent compound)” value (relative to propranolol) was 9.1 × 10^-1.
On the same count and under the same terms, in the case of `CC(=O)N[C@@H](Cc1ccc(NC(=O)CCCCC(C)NCC(O)COc2cccc3ccccc23)cc1)C(=O)NCCCO` (stereo partly drawn) [Compound 15, N^α -Acetyl-p-{6-(3-[1-Naphthyloxy]-2-Hydroxypropylamino)-Heptanoylamino}-L-Phenylalanyl-3-Hydroxypropylamide] it was 1.75 × 10^-1; in that of `CNC(=O)CNC(=O)[C@H](Cc1ccc(NC(=O)CCCCC(C)NCC(O)COc2cccc3ccccc23)cc1)NC(=O)OC(C)(C)C` (stereo partly drawn) [Compound 16, N^α -t-Butyloxycarbonyl-p-{6-(3-[1-Naphthyloxy]-2-Hydroxypropylamino)-Heptanoylamino}-L-Phenylalanyl-Glycyl-Methylamide], 7.8 × 10^-4.
Consider `CC(=O)Nc1ccc(OCC(O)CNC(C)CCCCC(=O)Nc2ccc(C)cc2)cc1` (stereo not shown) [Compound 17, 6-[3-(4-Acetamidophenoxy)-2-Hydroxypropylamino]-Heptanoic Acid p-Toluide], for which, for the setting “relative to practolol”, the “Rel. Potency (potency relative to the parent compound)” value is listed as 2.1 × 10^1.
The same measure, in the same setting: the figure for `CC(=O)Nc1ccc(OCC(O)CNC(C)CCCCC(=O)Nc2ccc(C(F)(F)F)cc2)cc1` (stereo not shown) [Compound 18, 6-[3-(4-Acetamidophenoxy)-2-Hydroxypropylamino]-Heptanoic Acid p-Trifluoromethylanilide] is 6.0; for `CC(=O)Nc1ccc(OCC(O)CNC(C)CCCCC(=O)Nc2ccc(C[C@H](NC(C)=O)C(=O)NCCCO)cc2)cc1` (stereo partly drawn) [Compound 19, N^α -Acetyl-p-{6-(3-[4-Acetamidophenoxy]-2-Hydroxypropylamino)-Heptanoylamino}-L-Phenylalanyl-3-Hydroxypropylamide] it is 1.5.
